In patent US20170246166A1, “1,2-BENZOTHIAZOLE COMPOUNDS FOR THE TREATMENT OF KIDNEY DISORDERS” (priority 2014, published 2017):

What was measured:
PKC = PKC in vivo target inhibition assay (pleckstrin phosphorylation in blood cells); design: species or system mouse; conditions: male ICR mice, oral gavage, 2 h after treatment
Protocol: The purpose of this assay is to evaluate the effects of in vivo administration of a test compound on PKC substrate phosphorylation in blood cells.
Pleckstrin is one of the PKC protein substrates and is primarily expressed in platelets and peripheral blood mononuclear cells (PBMC). Pleckstrin phosphorylation is proportional to PKC activity. The phosphorylation state of the pleckstrin protein in purified platelets and PBMC from mouse blood is analyzed via Western blotting using a primary antibody specific for phosphorylated PKC substrates. This antibody recognizes multiple phosphorylated PKC substrates that include, but are not limited to p-pleckstrin. The p-pleckstrin band is identified based on its molecular weight.
Male ICR mice (Charles River) are dosed by oral gavage with a test compound homogenized in 1% hydroxethylcellulose/0.25% TWEEN® 80, at a concentration range of 0.3-3 mg/mL, depending on dose; thus dosing volume is 10 ml/kg body weight. Staurosporine, dissolved in the same vehicle, may be used as a positive control to verify that the assay is functioning. […]
10% SDS-PAGE is conducted on the cell lysates (30 μg protein loaded per lane), with 130 V for 90 min. […] Intensity of near-infrared fluorescence is proportional to the level of PKC substrate phosphorylation. It is quantitated with ODYSSEY® software. […]

human PKCζ = biological target: T1, human PKCζ (Homo sapiens, UniProt Q05513); test: PKC isoforms based HTRF KinEASE-STK assay, PKCζ; assay type: biochemical; conditions: 10 μM ATP in substrate mix, 70 min
T1 sequence (Q05513 1-592): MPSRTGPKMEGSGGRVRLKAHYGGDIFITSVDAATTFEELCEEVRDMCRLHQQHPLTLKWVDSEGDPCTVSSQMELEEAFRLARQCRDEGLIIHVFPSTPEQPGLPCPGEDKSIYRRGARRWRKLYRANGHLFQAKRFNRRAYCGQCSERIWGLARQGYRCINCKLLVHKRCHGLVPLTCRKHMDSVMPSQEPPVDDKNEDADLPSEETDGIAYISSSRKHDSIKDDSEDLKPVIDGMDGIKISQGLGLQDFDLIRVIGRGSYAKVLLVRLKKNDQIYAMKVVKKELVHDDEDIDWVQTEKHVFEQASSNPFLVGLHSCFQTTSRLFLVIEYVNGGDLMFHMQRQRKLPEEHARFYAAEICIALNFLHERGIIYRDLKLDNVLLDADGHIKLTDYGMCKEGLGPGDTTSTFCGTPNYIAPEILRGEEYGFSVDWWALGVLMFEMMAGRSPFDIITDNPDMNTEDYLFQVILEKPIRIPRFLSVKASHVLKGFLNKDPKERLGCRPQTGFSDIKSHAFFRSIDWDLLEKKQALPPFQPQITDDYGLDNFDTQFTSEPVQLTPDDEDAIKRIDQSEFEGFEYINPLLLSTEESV
From the text: The purpose of this assay is to evaluate the inhibitory activity of compounds on various PKC isoforms. It has been reported that perturbations in vascular cell homeostasis caused by different PKC isoforms (PKC-α, β1/2, and PKC-δ) are linked to the development of pathologies affecting large vessel (atherosclerosis, cardiomyopathy) and small vessel (retinopathy, nephropathy, and neuropathy) complications. Geraldes, P. and King, G. L., “Activation of Protein Kinase C Isoforms and Its Impact on Diabetic Complications”, Cir.
Effects of a test compound on the kinase activity of PKCα, β2, δ, ε, ι, and ζ, are determined using a HTRF KINEASE™-STK assay kit (Cisbio) in accordance with the protocol provided by the vendor. It is a general method for measuring Serine/Threonine kinase activities using kinase substrates and a universal detection system. In the current protocol, biotinilated STK1provided in the assay kit is used as the substrate that can be phosphorylated by any PKC isoform. The HTRF KINEASE™-STK assay kit format involves the two steps (Enzymatic step and Detection step) described below. First, the kinase phosphorylates the substrate in the presence of ATP. Second, the detection reagents provided in the assay kit recognize the phosphorylated substrate.

C[C@@H]1CN(C(=O)c2cc(-c3c(F)cc(O)cc3F)cc3cnsc23)C[C@H](C)N1.Cl [Example 2, 4-(7-{[(3R,5 S)-3,5-DIMETHYLPIPERAZIN-1-YL]CARBONYL}-1,2-BENZOTHIAZOL-5-YL)-3,5-DIFLUOROPHENOL HYDROCHLORIDE]
ID50, pleckstrin phosphorylation, PBMCs (PKC; PBMCs): about 18.03 mg/kg
ID50, pleckstrin phosphorylation, platelets (PKC; platelets): about 11.85 mg/kg
IC50 (human PKCζ): ~15.5 µM
